# Assay results: patent US20170166870A1, “HUMAN HEPATIC 3D CO-CULTURE MODEL AND USES THEREOF” (Vrije Universiteit Brussel, priority 2014, published 2017)
# Like-named read-outs stand apart in the source and are kept apart here.
# Columns and labels:
# 3D HepaRG/HSC co-culture [1] = assay: Single and repeated exposure, cell viability (% ATP), serum-free medium; format: cell-based, human
# Procedure: Culture medium. Day 0 cells were resuspended in HepaRG thawing medium and from day 1 to 21 cells were kept in the HepaRG culture medium 0% DMSO, until day 8. For the repeated versus single compound exposure assays, on day 8, the HepaRG culture medium 0% DMSO was replaced by the Serum-free HepaRG maintenance medium described in Klein et. al. 2013 (HepaRG Induction/Toxicity medium, DMSO 0.5% (v/v), 2 μg/ml of epidermal growth factor and 10 μg/ml of hepatocyte growth factor) and kept in this medium until the end of culture.
# (§1) Single and repeated exposure. For the single and repeated compound exposure cell spheroids (3D HepaRG/HSC, 3D HepaRG and 3D HSC) were exposed respectively on day 20 for 24 h or every second day from day 8 to day 21 in serum-free medium with no additional solvent. Cells were exposed to a range of 8 concentrations between 0.5 and 80 mM for APAP single-dose, 0.125 and 40 mM for APAP repeated-dose, 0.3 and 500 μM Allyl Alcohol (AA, Sigma-Aldrich), 1.9 and 1000 μM Methotrexate (MTX, Pfizer, NY, USA). For the recovery assay, on day 21, cells were washed using serum-free medium and kept for 3 extra days.
# Cell viability assay was performed by measuring ATP production upon individual spheroid exposure to the different concentrations of the test compound. Cell spheroids were lysed individually for viability analysis using the Cell titer Glo kit (Promega) following the instructions of the manufacturer. Luminescence values were converted into percentage of ATP by comparison with controls and converted into dose-response curves using Prism 5 software.
# 3D HepaRG/HSC co-culture [2] = assay: Single and repeated exposure, gene expression of HSC activation markers; format: cell-based, human; details: for HSC activation (up-regulation of activation markers, mRNA): serum-free medium
# Procedure: as §1
# For the cell culture samples, total RNA from 4-6 pooled spheroids was extracted from cells using the RNeasy Micro Kit (Qiagen, Venlo, Limburg, Netherlands). In the mouse assays, sorted HSC from different mice were lysed separately. Total RNA from tissue cultured cells was extracted using ReliaPrep RNA Cell Miniprep System (Promega).
# Reverse-transcription using the Revert Aid Kit (ThermoFisher Scientific, Waltham, Massachusetts, USA) allowed conversion of RNA to cDNA. The RT reaction was performed at 25° C. for ten minutes followed by 30 minutes at 50° C. For quantitative real-time polymerase chain reaction (qPCR), GoTaq QPCR Master Mix with BRYTE green (Promega) was used, subjected to qPCR in a 7500 real time PCR system and analysed using System SDS software v2.0.5 (Applied Biosystems, Waltham, Mass., USA), using GAPDH for normalisation. Reliability of GAPDH as house-keeping gene was determined using Normfinder (Anderson et al., 2004). Fold change differences between samples were determined using the comparative Ct (δδCt) method. The expression level of different targets, relative to GAPDH (δCt) and relative to the calibrator, was given by 2^−δδCt.
# 3D HepaRG/HSC co-culture [3] = assay: Single and repeated exposure, procollagen in culture supernatant; format: cell-based, human; details: repeated exposure, day 14; not observed at day 21
# Excerpt: (§2) FIG. 10: APAP and reference fibrotic compounds in single- and repeated-exposure of the 3D HepaRG/HSC co-culture. (A, C and E) cell viability, represented by % ATP and (B, D and F) gene expression. Error bars represent the standard deviation between independent assays (N=2) each point represents the pool of 5-6 spheroids. (D, F) Graph inserts represent the second repeat of the assay. Due to the variation between assays values could not be averaged together. Each point represents the pool of 5-6 spheroids. (G-H) Fibrosis read-outs at the protein level. (G) Procollagen measurements in culture supernatant upon single and repeated compound exposure (day 14 and 21) to 3D HepaRG/HSCs. (H) Procollagen measurements in culture supernatant upon 24 h incubation with the reference pro-fibrotic compounds of 3D HepaRG and 3D HSCmono-cultures.
# (§3) Samples for pro-collagen measurement were five times concentrated using 10 kD Vivaspin 500 ultrafiltration columns (VWR, Radnor, Pa.), the resulting supernatant was analysed for the presence of Type I C-Peptide using the TAKARA (Chanteloup-en-Brie, France) kit.
# (§4) Single and repeated exposure. For the single and repeated compound exposure cell spheroids (3D HepaRG/HSC, 3D HepaRG and 3D HSC) were exposed respectively on day 20 for 24 h or every second day from day 8 to day 21 in serum-free medium with no additional solvent. […]
# [4] = system: 3D HepaRG and 3D HSC mono-cultures; assay: Procollagen in culture supernatant of mono-cultures, reference pro-fibrotic compounds; format: cell-based, human; details: 3D mono-cultures, 24 h incubation
# Excerpt: as §2, §3, §4
# 3D HepaRG/HSC co-culture [5] = assay: Exposure to pro-fibrotic factors, gene expression; format: cell-based, human
# Procedure: From day 14 to day 21, 3D HepaRG/HSC spheroids were exposed to a solution of 100 ng/ml Lipopolysaccharide (LPS, Sigma) in culture medium, refreshed every second day up to day 21. Incubation with the Transforming growth factor-β1 (TGF-β1, R&D systems inc., Minneapolis, Minn., USA) was performed on day 19 for 48 h at a concentration of 10 ng/ml in HepaRG Induction/Toxicity medium. On day 21, cells were lysed and gene expression was analyzed upon RNA extraction.
# (§5) Total RNA was extracted from cells using the ReliaPrep RNA Cell Miniprep System (Promega, Madison, Wis.). Reverse-transcription using the Revert Aid Kit (ThermoFisher Scientific, St. Leon-Rot, Germany) allowed conversion of RNA to cDNA. The RT reaction was performed at 25° C. for ten minutes followed by 30 minutes at 50° C. For quantitative real-time polymerase chain reaction (qPCR), GoTaq QPCR Master Mix with BRYTE green (Promega, Madison, Wis.) was used, subjected to qPCR in a 7500 real time PCR system and analysed using System SDS software v2.0.5 (Applied Biosystems), using GAPDH for normalisation.
# [6] = system: 3D mouse hepatocyte/HSC co-culture (1Hep:2HSC); assay: LPS stimulation of 3D mouse hepatic co-cultures, aSMA and Col1a1 expression; format: cell-based; details: 6 days LPS treatment, day 9; 1Hep:2HSC ratio
# Excerpt: FIG. 1: Screen of hepatocyte:hepatic stellate cell ratios in 3D mouse cultures. Figure represents the HSC activation markers (A, B) and Hepatocyte markers (C) measured in the different 3D mouse hepatic co-cultures. A—basal gene expression of fibrotic markers (aSMA and Col1a1) on day 9 of culture. B—Fold increase of aSMA and Col1a1 on day 9 upon 6 days treatment with the pro-fibrotic factor LPS. Horizontal line corresponds to non-treated 3D co-cultures for each case. C—over-time gene expression of albumin (a) and CYP3A11 (b) in the 3D co-cultures where better results were obtained previously (2hep:1HSC and 1Hep:2HSC). Comparisons between groups were analyzed for statistical significance by one-way ANOVA followed by Tukey. *** p<0.001; ** p<0.01; * p<0.05. […]
# Total RNA was extracted from cells using the ReliaPrep RNA Cell Miniprep System (Promega, Madison, Wis.). […] For quantitative real-time polymerase chain reaction (qPCR), GoTaq QPCR Master Mix with BRYTE green (Promega, Madison, Wis.) was used, subjected to qPCR in a 7500 real time PCR system and analysed using System SDS software v2.0.5 (Applied Biosystems), using GAPDH for normalisation. Reliability of GAPDH as house-keeping gene was determined using Normfinder (Andersen, Jensen et al. 2004) to produce the ΔCT values. […]
# 3D HepaRG/HSC co-culture [7] = assay: APAP toxicity assay, cell viability by ATP (Cell titer Glo); format: cell-based, human; details: 2.5 mM VPA with APAP
# Procedure: APAP toxicity assay was performed in 3D HepaRG/co-culture as well as in 3D HepaRG monoculture. […] For some experiments the culture medium was supplemented with 2.5 mM valproic acid (VPA sodium salt, Sigma-Aldrich) or with cytokine mixture (Raicevic et al.,2012)-interleukin (IL)-1β 25 ng/mL (Peprotech, Rocky Hill, N.J., USA), interferon (IFN)-γ 10^3 U/mL, tumor necrosis factor (TNF)-a 50 ng/mL, and IFN-α 3·10^3 U/mL (all from Prospec, Inc., East Brunswick, N.J., USA). For the recovery assay, at the end of APAP incubation, cells were washed using HepaRG culture 0% DMSO medium and kept in the same medium for 3 more days.
# (§6) At the end of the incubation period, 5 spheroids per condition were pooled and lysed for RNA analyses, while the remaining spheroids per condition were lysed individually for viability analysis using the Cell titer Glo kit (Promega) for ATP measurements following the instructions of the manufacturer.
# 3D HepaRG/HSC co-culture [8] = assay: mRNA expression of HSC activation markers (qPCR) after APAP incubation; format: cell-based, human; details: 2.5 mM VPA, highest APAP concentrations
# Procedure: APAP toxicity assay was performed in 3D HepaRG/co-culture as well as in 3D HepaRG monoculture. For 24 h, starting at day 20, cells were exposed to a range of APAP concentrations between 0.5 and 80 mM, keeping cells with the solvent (0.1% DMSO) as a control. For some experiments the culture medium was supplemented with 2.5 mM valproic acid (VPA sodium salt, Sigma-Aldrich) or with cytokine mixture (Raicevic et al.,2012)-interleukin (IL)-1β 25 ng/mL (Peprotech, Rocky Hill, N.J., USA), interferon (IFN)-γ 10^3 U/mL, tumor necrosis factor (TNF)-a 50 ng/mL, and IFN-α 3·10^3 U/mL (all from Prospec, Inc., East Brunswick, N.J., USA). For the recovery assay, at the end of APAP incubation, cells were washed using HepaRG culture 0% DMSO medium and kept in the same medium for 3 more days.
# as §6, §5
compound,measurement,setting,value
"CN(Cc1cnc2nc(N)nc(N)c2n1)c1ccc(C(=O)N[C@@H](CCC(=O)O)C(=O)O)cc1 [MTX, Methotrexate]",cell viability,3D HepaRG/HSC co-culture [1],does not seem to affect cell viability at any of the tested concentrations
same,percentage of ATP production,"3D HepaRG/HSC co-culture [1]; repeated exposure, lowest concentration",less than 20%
same,recovery of HSC 3 days after compound washout,3D HepaRG/HSC co-culture [2]; repeated exposure 63 μM,observed
same,"HSC activation (up-regulation of activation markers, mRNA)",3D HepaRG/HSC co-culture [2]; repeated exposure,dramatically compensated
same,"HSC activation (up-regulation of activation markers, mRNA)",3D HepaRG/HSC co-culture [2]; single exposure 24 h,no longer observed
same,collagen secretion,3D HepaRG/HSC co-culture [3],high collagen secretion at day 14
same,collagen secretion,[4],no collagen secretion is detected
"TGFβ: Transforming growth factor-β1, known pro-fibrogenic factor","activation markers (Acta2, Col1a1, Col3a1, Loxl2) expression","3D HepaRG/HSC co-culture [5]; 10 ng/ml TGFβ, 48 h, day 21",acted on the activation markers
Lipopolysaccharide [LPS],"survivor markers (IL6, MMP1, CCL2, TNFα, IL1β) expression","3D HepaRG/HSC co-culture [5]; 100 ng/ml LPS, 6 days",induced an up-regulation of the survivor markers
same,"activation response (aSMA, Col1a1)",[6],increased aSMA and Col1a1
C=CCO [Allyl Alcohol],cell viability dose-response,3D HepaRG/HSC co-culture [1]; repeated exposure,disappeared upon repeated exposure
same,cell viability,3D HepaRG/HSC co-culture [1]; single exposure,dose-response observed at the single exposure
same,"HSC activation (up-regulation of activation markers, mRNA)",3D HepaRG/HSC co-culture [2]; repeated exposure,increase of the HSC activation markers at mRNA levels
same,"HSC activation (up-regulation of activation markers, mRNA)",3D HepaRG/HSC co-culture [2]; single exposure 24 h,increase of the HSC activation markers at mRNA levels
same,collagen secretion,3D HepaRG/HSC co-culture [3],high collagen secretion at day 14
same,collagen secretion,[4],no collagen secretion is detected
"CCCC(CCC)C(=O)O [VPA, valproic acid]",effect on APAP toxicity (cell viability),3D HepaRG/HSC co-culture [7],did not affect APAP toxicity
same,effect on APAP-induced HSC markers,3D HepaRG/HSC co-culture [8],lower up-regulation of the HSC markers
